Reference: patent US10532106B2 (priority 2014, dated 2020)
Numbered stars: 1 amine (or outer) side, 2 acyl side, 3 side chain; on linkers, the order of the positions; unused ones are H or OH. Bridge positions count the residues as written; N and C are the ends. Square brackets hold non-standard residues; d marks the D form. Peptide text beside a SMILES is read from it. TBMB = c1c(C[*:1])cc(C[*:3])cc1C[*:2]; Sar = CNCC(=O)O

How the values were obtained:
[1] = Plasma stability, quantitative LC-MS (Method #2); format: in vitro ADME, mouse
Experimental: […] […] Prior to LC-MS analysis, samples were defrosted, and mixed with 3 volumes (here, 120 μL) of 1:1 acetonitrile/MeOH water. The milky suspensions were centrifuged for 30 min at 13000 rpm, and peptide-containing supernatants were quantitated for doubly/triply charged species and MS/MS fragments thereof using a Waters Xevo TQ-D instrument, while using a plasma extracted standard curve of the same peptides as a reference. The half-life of degradation in plasma was used to assess the comparative stability of the molecules.

MT1-MMP hemopexin domain = target: T1, MT1-MMP hemopexin domain (Homo sapiens, UniProt P50281); test: Competition assay using fluorescence polarisation; format: binding; settings: murine, dog, cynomolgus and human MT1-MMP
T1 construct: residues Cys319-Gly511 from the human gene; His6 (N); made in house; host or cells: HEK293 (transient), pEXPR-IBA42 vector
Method in brief: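 Pre-formed PEX–fluorescent tracer complex titrated with non-fluoresceinated bicyclic peptide, which displaces tracer and lowers fluorescence polarisation. Competitor Kd obtained by fitting to the cubic-equation solution for tracer/titrant/protein equilibria, using tracer Kd from separate direct-binding FP.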

[2] = Plasma stability, quantitative LC-MS; format: in vitro ADME, rat; settings: Table 16; incubation up to 24 hrs, 4 μM
[3] = Degradation products in mouse plasma by MALDI-TOF (Method #1); format: in vitro ADME
Experimental: A rapid plasma stability profiling assay was developed that employed mass spectrometric detection (MALDI-TOF, Voyager DE, Applied Biosystems) of the parent mass as well as plasma-protease induced fragments thereof. By assessing the nature of the fragments, preferred cleavage sites can be determined. Here, a 1-1.5 mM peptide stock (in DMSO) was directly diluted into mouse/rat/human plasma (Sera labs, using citrate as anticoagulant), giving a final concentration of 50 μM peptide, and incubated for up to 48 hrs at 37° C. 5 μL samples were taken at appropriate time points and frozen at −80° C. For analysis, the samples were defrosted, mixed with 25 μL of 3:3:1 acetonitrile:methanol:water, and centrifuged at 13 k for 5 min. 5 μL of the peptide-containing supernatant was aspirated and mixed with 30 mM ammonium bicarbonate in a 1:1 mixture of acetonitrile:H2O. 1 μL of this was then spotted on the MALDI plate, dried, and Matrix (alpha-cyanocinnamic acid, Sigma, prepared as a saturated solution in 1:1 acetonitrile:water containing 0.1% trifluoroacetic acid) was layered over the sample (1 μL), dried and analysed using the MALDI TOF. […]
In an effort to understand the chemical nature of the degradation of 17-69-07-N219 in mouse plasma, samples were analysed using MALDI-TOF for any potential degradation products.

CC[C@H](C)[C@@H]1NC(=O)[C@H](CC(=O)O)NC(=O)[C@H](Cc2ccc(O)cc2)NC(=O)[C@H](Cc2ccccc2)NC(=O)[C@H](CC(=O)O)NC(=O)[C@H](CCC(=O)O)NC(=O)[C@@H]2CSCc3cc(cc(c3)CSC[C@H](NC(=O)[C@H](C)NC(=O)CN(C)C(=O)CN(C)C(=O)CN(C)C(=O)CN(C)C(=O)CN(C)C(=O)CN(C)C(=O)CN(C)C(=O)CN(C)C(=O)CN(C)C(=O)CN(C)C(=O)CN)C(=O)N[C@@H](Cc3ccc(O)cc3)C(=O)N[C@@H](CC(N)=O)C(=O)N[C@@H](CCC(=O)O)C(=O)N[C@@H](Cc3ccccc3)C(=O)NCC(=O)N2)CSC[C@@H](C(N)=O)NC1=O [17-69-07-N219, G-Sar10-A-(17-69-07)] (H-G[Sar][Sar][Sar][Sar][Sar][Sar][Sar][Sar][Sar][Sar]ACYNEFGCEDFYDIC-NH2; linker 13-19-26 via TBMB)
t1/2 (hrs) (mouse plasma) ([1]; Table 16, incubation up to 24 hrs, 4 μM): 3.9 ± 0.3 h
half-life in mouse plasma ([1]; ex vivo mouse plasma at 37° C. (FIG. 1, FIG. 3A)): 6 h
species cross-reactivity (MT1-MMP hemopexin domain): fully cross reactive
t1/2 (hrs) (rat plasma) [2]: 3.7 ± 0^ hrs
degradation products [3]: possible loss of tyrosine
